Test results from US20140056866A1, “USE OF BIOLOGICAL OR CHEMICAL CONTROL AGENTS FOR CONTROLLING INSECTS AND NEMATODES IN RESISTANT CROPS” (priority 2010, published 2014).

How the values were obtained:
Glycine max (soybean) = test: Soybean shoot height and plant mass after metalaxyl seed treatment (Example 2); format: in vivo
Description: (§1) Glycine max (soybean) seed from an event traited with Axmi031 was selected. […] Plants that screened negative for the presence of the transgene were used for control comparisons.
(§2) Seed was treated with seed applied pesticides using a hege bowl treater. Metalaxyl (MTL), available as Allegiance through Bayer CropScience, was applied at rates of 2 and 4 g ai/100 kg seed. Trilex 2000 was also included as a commercial standard package.
(§3) During testing, samples of each plant were submitted for PCR to determine if an individual plant carried the Axmi031 gene (Positive or Negative). Plants for which no PCR results could be obtained were not included in results. There were a disproportionate number of positive plants. As a result, the number of negative plants available in some comparisons was very small.
(§4) Testing was conducted as a randomized complete block with 30 replications. Seed were planted into sand at a rate of one seed per pot. Plants were stored at 10° C. for eight days and then moved to 25° C. for the remainder of the test. Plants were periodically assessed for emergence. After several weeks of growth plants were evaluated for height. At approximately 40 days after planting, 5 random plants for each treatment comparison were selected for extraction. If fewer than 5 plants were available, evaluations were still conducted as long as a minimum of 3 plants could be assessed. Exacted plants were measured by hand to determine root length and mass and evaluated using WinRHIZO image analysis system (available through Regent instruments at www.regent.qc.ca/products/rhizo/WinRHIZO.html.

[1] = test system: Glycine max (soybean) roots; test: WinRHIZO root image analysis of soybean (Example 2); format: in vivo
Description: as §1, §2, §3, §4

S. frugiperda = test: Leaf sample bioassay with fall armyworm larvae (Example 3); format: in vivo; conditions: for Insect Mortality / Leaf Feeding Rating: 48 hours; for Insect Mortality: Jul. 14, 2011; for Leaf Feeding Rating: scale 0 = undamaged to 3 = severe feeding; for additional increase in mortality in the presence of Axmi205: versus clothianidin alone; for increase in mortality above the negative control: Axmi205-negative plants
Description: (§5) Zea Mays (Corn) seed from events traited with Axmi205 were selected. […] The population of the seed used is not entirely transgenic; plants without the trait in their DNA were used for control comparisons.
(§6) Seed was treated with seed applied pesticides using a hege bowl treater. Applications were made of: Clothianidin; available as Poncho though through Bayer CropScience. Rates were applied as mg ai/seed. The evaluation had non-target variables controlled.
(§7) During testing, samples of each plant were submitted for PCR to determine if an individual plant carried the Axmi205 gene (positive or negative). Plants for which no PCR results could be obtained were not included in the results.
(§8) Seed were planted into germination mix at a rate of one seed per root-trainer. Testing was conducted as a randomized complete block with 30 replications. Plants were maintained in a greenhouse and periodically assessed for emergence. After several weeks of growth, leaf samples were taken from plants and used to conduct insect bioassays on species of Lepidoptera. A leaf sample was placed into a Petri-dish and infested with 10 larvae of fall armyworm; Spodoptera frugiperda. After 48 hours dishes were evaluated for insect mortality and leaf feeding damage. When assessing leaf feeding, damage was recorded as a rating between 0-3, where zero was undamaged and three was severely damaged. After approximately three weeks from planting, plants were infested with Diabrotica virgifera (western corn rootworm). Western corn rootworm eggs were infested into the root system of plants. At approximately 15 days post infestation plants were extracted and insect feeding damage was evaluated following Iowa State University's Node-Injury Scale at www.ent.iastate.edu/pest/rootworm/nodeinjury/nodeinjury.html.

D. virgifera = test: Western corn rootworm root feeding damage, Node-Injury Scale (Example 3); format: in vivo, Diabrotica virgifera; conditions: for Root Damage Rating: 0 = undamaged, 3 = severely damaged
Description: as §5, §6, §7, §8

SCN (inbred colony OP50) = test: SCN cyst counts on soybean pot plants, seed treated with fluopyram (Example 1); format: in vivo, soybean cyst nematodes; conditions: base (color/coating) treatment only, two months after planting
Description: Two tests were planted with Jack (an SCN resistant soybean variety with PI 88788 resistance) and two genetically modified Jack varieties (AXN2 and AXMI031) known to produce a nematicidal protein. The seed were treated with a color/coating base or the same base plus one of two different rates of fluopyram (experiment 1 used 0.075 mg fluopyram/seed and experiment 2 used 0.15 mg fluopyram/seed). The SCN used to inoculate both tests were collected from an inbred colony (OP50) with the ability to overcome PI 88788 resistance.
Tests were conducted as non-randomized blocks with a minimum of 10 replicates. Seed were planted in individual 4″ clay pots with coarse sand and inoculated with approximately 20,000 OP50 juveniles in ten equal inoculations beginning at planting and again approximately every third day. Plants were maintained in a germination chamber. Blocks were rotated approximately every third day to minimize potential influence of environmental variance. Two months after planting, plants were harvested and cysts were collected and counted to evaluate the efficacy of the nematicide and traits, both individually and in combination with each other.

SCN (HG2.5.7) = test: SCN cyst counts on Axmi031 soybean treated with Bacillus firmus (Example 4, FIG. 2); format: in vivo, soybean cyst nematodes; conditions: Axmi031 expression
Description: Soybeans (6-10 seeds each) in this study included: Control SB171 (transfected control with non gene of interest); SB 171 treated with Bacillus firmus CNCM I-1582 spore control plant; Axmi031 transgenic plant (which also contains non gene of interest); Axmi031 transgenic plant (which also contains non gene of interest) treated with Bacillus firmus CNCM I-1582 spore.
Soybeans (6-10 seeds/plant and treatment) were planted into 4″ clay pots in sand infested with approximately 37,000 SCN eggs (HG2.5.7) at time of planting. Soybean plants were reinfested with 20,000 SCN eggs (HG2.5.7) at approximately 4 weeks post planting. Plants were grown 57 days post reinfestation date. Cysts were harvested from each pot and counted. PCR and Western analysis were done on each AXMI031 plant. Negative segregants were removed from analysis. Data shown in FIG. 2 represents six plants for SB171 each treatment and all PCR/Western positive Axmi031 plants.

[2] = metalaxyl 2 g ai added to Axmi031
[3] = metalaxyl 4 g ai added to Axmi031

Q: With `COCC(=O)N(c1c(C)cccc1C)C(C)C(=O)OC` (stereo not drawn) [metalaxyl] as the molecule, how does the “plant shoot height, trend with rate” value (Glycine max (soybean); metalaxyl 2 and 4 g ai/100 kg seed) read?
A: increased with increasing rates

Q: What about the “additional increase in plant total mass” value (Glycine max (soybean); metalaxyl 2 g ai on Axmi031 plants) of the same molecule?
A: 5%

Q: And the additional shoot height (Glycine max (soybean); metalaxyl 2 g ai/100 kg seed on Axmi031 plants)?
A: 5%

Q: What about the “increase in above ground plant mass compared to Axmi031 alone” value (Glycine max (soybean); metalaxyl 4 g ai on Axmi031 plants) of the same molecule?
A: 11%

Q: What about the additional shoot height (Glycine max (soybean); metalaxyl 4 g ai/100 kg seed on Axmi031 plants) of the same molecule?
A: 8%

Q: And the “increase in root lengths” value [1, 2]?
A: 60%

Q: What about the “increase in root surface area” value [1, 2] of the same molecule?
A: 42%

Q: And the “increase in root volume” value [1, 2]?
A: 27%

Q: What about the “increase in root lengths” value [1, 3] of the same molecule?
A: 68%

Q: And the “increase in root surface area” value [1, 3]?
A: 37%

Q: What about the “increase in root volume” value [1, 3] of the same molecule?
A: 11%

Q: And the “root tips, forks, and crossings” value ([1]; metalaxyl added to Axmi031, trend with rate)?
A: increased as metalaxyl rate increased

Q: With `CN/C(=N\[N+](=O)[O-])NCc1cnc(Cl)s1` [clothianidin] as the molecule, how does the “Insect Mortality” value (S. frugiperda; CTD 0.125 mg ai/seed) read?
A: 8%

Q: What about the “Leaf Feeding Rating” value (S. frugiperda; CTD 0.125 mg ai/seed) of the same molecule?
A: 3.00

Q: What about the “Insect Mortality” value (S. frugiperda; CTD 0.25 mg ai/seed) of the same molecule?
A: 12%

Q: What about the “Leaf Feeding Rating” value (S. frugiperda; CTD 0.25 mg ai/seed) of the same molecule?
A: 2.77

Q: And the “Insect Mortality” value (S. frugiperda; CTD 0.5 mg ai/seed)?
A: 11%

Q: And the “Leaf Feeding Rating” value (S. frugiperda; CTD 0.5 mg ai/seed)?
A: 3.00

Q: What about the “additional increase in mortality in the presence of Axmi205” value (S. frugiperda; clothianidin 0.125 mg ai/seed) of the same molecule?
A: 88%

Q: What about the “additional increase in mortality in the presence of Axmi205” value (S. frugiperda; clothianidin 0.5 mg ai/seed) of the same molecule?
A: 54%

Q: And the “increase in mortality above the negative control” value (S. frugiperda; highest rate of clothianidin (0.5 mg ai/seed))?
A: 57%

Q: And the “increase in mortality above the negative control” value (S. frugiperda; lowest rate of clothianidin (0.125 mg ai/seed))?
A: 14%

Q: And the “increase in mortality above the negative control” value (S. frugiperda; middle rate of clothianidin (0.25 mg ai/seed))?
A: 71%

Q: What about the “Root Damage Rating” value (D. virgifera; CTD 0.125 mg ai/seed) of the same molecule?
A: 0.56

Q: What about the “Root Damage Rating” value (D. virgifera; CTD 0.25 mg ai/seed) of the same molecule?
A: 0.32

Q: And the “Root Damage Rating” value (D. virgifera; CTD 0.5 mg ai/seed)?
A: 0.04

Q: And the “reduction of root damage over the negative control” value (D. virgifera; highest rate of clothianidin tested (0.5 mg ai/seed))?
A: 96%

Q: What about the “reduction of root damage over the negative control” value (D. virgifera; lowest rate of clothianidin tested (0.125 mg ai/seed)) of the same molecule?
A: 67%

B1: Axn2: nematicidal protein trait expressed in genetically modified Jack soybean (gene axn2, Table 1) (protein, listed as Bacillus thuringiensis)
chain: MRIRRNQSTLSHNERLAFTNAVLELKRRPSRLPMSLGSTSRYDDYVYWHLQSMENQTSTTPGWAHRGPAFLPWHRYYLNQFEEDLQRIDHTVTLPYWDWTVDNSTDSSVPGSPWTDDFMGGDGDPTQEYTVTTGPFTGDNWKLTLFDHHENEPHNARLRRQLGTTLNASGNTISINLPTDSEVQNCLLETPYYVSPWRAGQDVNQPALNPTKPSFCNRLEGWYGAGSIHNKVHVWVAGATEGSMIWMSSPNDPVFFLHHANIDRLWVQWQANNPNEGYHPTGNGNEVGPTGHNLNDSMNPWGRKVTPNNVLNHYSLGYTYDTDSTPLSEIFMHTFNLKIRKEKQIKDGHFGLSQEDLDKL
Q: Which “percent reduction in average number of cysts compared to Jack” value (“percent reduction in average number” for short) (SCN (inbred colony OP50); first experiment) does the source give for B1 here?
A: 20%

Q: And the “percent reduction in average number” value (SCN (inbred colony OP50); second experiment)?
A: 43%

B2: Axmi031: nematicidal protein trait expressed in genetically modified soybean (gene axmi031, Table 1) (protein)
chain: MDCNLQSQQNIPYNVLAIPVSNVNSLTDTVGDLKKAWEEFQKTGSFSLTALQQGFSASQGGTFNYLTLLQSGISLAGSFVPGGTFVAPIINMVIGWLWPHKNKNADTENLINLIDSEIQKQLNKALLDADRNEWSSYLESIFDSSNNLNGAIVDAQWSGTVNTTNRTLRNPTESDYTNVVTNFIAADGDIANNENHIMNGNFDVAAAPYFVIGATARFAAMQSYIKFCNAWIDKVGLSDAQLTTQKANLDRTKQNMRNAILNYTQQVMKVFKDSKNMPTIGTNKFSVDTYNVYIKGMTLNVLDIVAIWPSLYPDDYTSQTALEQTRVTFSNMVGQEEGTDGSLRIYNTFDSFSYQHSPIPNNNVNLISYYNDELQNLELGVYTPPKKGSGYSYPYGFVLNYANSKYKYGDSNDPESLGGLSTLSAPIQQVNAATQNSKYLDGEILNGIGASLPGYCTTGCSPTEPPFSCTSTANGYKASCNPSDTNQKINALYPFTQANVKGNTGKLGVLASLVSYDLNPKNVFGELDSDTNNVILKGIPAEKGYFPNNARPTVVKEWINGASAVPLDSGNTLFMTATNLTATQYRIRIRYANPNSNTQIGVRITQNGSLISSSNLTLYSTTDMNNTLPLNVYVIGENGNYTLQDLYNTTNVLSTGDITLQITGGDQKIFIDRIEFVPTMPVPGNTNNNNGNNNGNNNPPHHVCAIAGTQQSCSGPPKFEQVSDLEKITTQVYMLFKS
modifications: AXMI-031(A-D)
Q: With B2 as the molecule, how does the “SCN cyst counts in transgenic soybean plants” value (SCN (HG2.5.7)) read?
A: correlates with reduction in SCN cysts counts

Q: What about the “percent reduction in average number” value (SCN (inbred colony OP50); first experiment) of the same molecule?
A: 92%

Q: What about the “percent reduction in average number” value (SCN (inbred colony OP50); second experiment) of the same molecule?
A: 88%

Q: What about the “shoot length versus untreated negative control (UTC)” value (Glycine max (soybean); 28 days after planting (DAP), Axmi031 without metalaxyl) of the same molecule?
A: 14%

Q: And the “increase in plant total mass” value (Glycine max (soybean); presence of Axmi031, no metalaxyl)?
A: 13%

Q: What about the “WinRHIZO root values versus negative control” value ([1]; Axmi031 as an individual component) of the same molecule?
A: comparable to, or slightly below, the negative control
